Our source for the IC50 values is US7446117B2, “Cox-2 inhibiting pyridine derivatives” (Glaxo Group Limited, priority 2002, dated 2008).

For orientation: IC50 means the concentration needed to halve the response being measured.

This test concerns the target T1, microsomal h-COX2 (Homo sapiens, UniProt P35354).
T1 construct: made in house; host or cells: baculovirus infected SF9 cells (microsomal preparation)
T1 sequence (P35354 18-604): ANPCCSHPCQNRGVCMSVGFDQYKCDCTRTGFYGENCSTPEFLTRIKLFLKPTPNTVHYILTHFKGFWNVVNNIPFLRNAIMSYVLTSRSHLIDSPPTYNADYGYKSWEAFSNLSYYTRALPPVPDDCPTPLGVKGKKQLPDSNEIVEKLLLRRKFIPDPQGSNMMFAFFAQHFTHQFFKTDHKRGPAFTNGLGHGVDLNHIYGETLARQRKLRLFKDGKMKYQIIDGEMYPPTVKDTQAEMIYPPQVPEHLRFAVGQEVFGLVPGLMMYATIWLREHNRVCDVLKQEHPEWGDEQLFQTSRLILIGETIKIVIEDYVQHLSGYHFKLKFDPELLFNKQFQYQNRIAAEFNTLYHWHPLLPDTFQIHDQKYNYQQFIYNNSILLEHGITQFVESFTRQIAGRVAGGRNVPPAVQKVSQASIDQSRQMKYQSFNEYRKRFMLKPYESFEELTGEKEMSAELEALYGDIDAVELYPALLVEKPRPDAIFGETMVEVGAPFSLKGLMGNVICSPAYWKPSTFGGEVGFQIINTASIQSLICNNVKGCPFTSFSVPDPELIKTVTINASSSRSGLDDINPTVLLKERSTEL
Briefly: Microsomal assay: inhibitory activity against microsomal h-COX2. In kind it is biochemical. The note with it: microsomal preparation from baculovirus infected SF9 cells; 1 hour incubation with compound; 0.1 μM arachidonic acid, 10 minutes; PGE2 by EIA; read-out: IC50 values for inhibition of COX-2. As for the experimental part:
Biological Data Microsomal Assay
Inhibitory activity against microsomal h-COX2 was assessed against a microsomal preparation from baculovirus infected SF9 cells. An aliquot of microsomal preparation was thawed slowly on ice and a 1/40,000 dilution prepared from it into the assay buffer (sterile water, degassed with argon containing 100 mM HEPES (pH 7.4), 10 mM EDTA (pH7.4), 1 mM phenol, 1 mM reduced glutathione, 20 mg/ml gelatin and 0.001 mM Hematin). Once diluted the enzyme solution was then sonicated for 5 seconds (Branson sonicator, setting 4, 1 cm tip) to ensure a homogeneous suspension. 155 μl enzyme solution was then added to each well of a 96-well microtitre plate containing either 5 μl test compound (40× required test concentration) or 5 μl DMSO for controls. Plates were then mixed and incubated at room temperature for 1 hour. Following the incubation period, 40 μl of 0.5 μM arachidonic acid was added to each well to give a final concentration of 0.1 μM. Plates were then mixed and incubated for exactly 10 minutes (room temperature) prior to addition of 25 μl 1M HCl (hydrochloric acid) to each well to stop the reaction. 25 μl of 1M NaOH (sodium hydroxide) was then added to each well to neutralise the solution prior to determination of PGE2 levels by enzyme immunoassay (EIA).
Take `Cc1cc(OCc2ccc(C)nc2)nc(-c2ccc(S(C)(=O)=O)cc2)c1` [Example 158]: the IC50 is at most 500 nM. In the case of `Cc1ncccc1Nc1cc(C(F)(F)F)cc(-c2ccc(S(C)(=O)=O)cc2)n1` [Example 160] it was at most 500 nM; in that of `Cc1cccc(Nc2cc(C(F)(F)F)cc(-c3ccc(S(C)(=O)=O)cc3)n2)n1` [Example 162], at most 500 nM; in that of `Cc1ccc(Nc2cc(C(F)(F)F)cc(-c3ccc(S(C)(=O)=O)cc3)n2)cn1` [Example 163], at most 500 nM.

For `CS(=O)(=O)c1ccc(-c2cc(C(F)(F)F)cc(OCc3ccccn3)n2)cc1` [Example 164, 2-[4-(methylsulfonyl)phenyl]-6-[(2-pyridinylmethyl)oxy]-4-(trifluoromethyl)pyridine], the IC50 is at most 500 nM. Take `Cc1ncccc1Oc1cc(C(F)(F)F)cc(-c2ccc(S(C)(=O)=O)cc2)n1` [Example 165]: the IC50 was at most 500 nM. With `CS(=O)(=O)c1ccc(-c2cc(C(F)(F)F)cc(OCc3cccnc3)n2)cc1` [Example 166], the IC50 was at most 500 nM. Consider `Cc1ccc(Oc2cc(C(F)(F)F)cc(-c3ccc(S(C)(=O)=O)cc3)n2)cn1` [Example 167], for which the IC50 is at most 500 nM. As to `CS(=O)(=O)c1ccc(-c2cc(C(F)(F)F)cc(NCc3cnccn3)n2)cc1` [Example 168], the IC50 was at most 500 nM. The value for `CS(=O)(=O)c1ccc(-c2cc(C(F)(F)F)cc(Nc3ccc(F)cc3)n2)cc1` [Example 169] was at most 500 nM; that for `CN(Cc1ccco1)c1cc(C(F)(F)F)cc(-c2ccc(S(C)(=O)=O)cc2)n1` [Example 170] was at most 500 nM.

As for `Cn1cc(CNc2cc(C(F)(F)F)cc(-c3ccc(S(C)(=O)=O)cc3)n2)cn1` [Example 171], the IC50 was at most 500 nM. As for `Cn1ncnc1CNc1cc(C(F)(F)F)cc(-c2ccc(S(C)(=O)=O)cc2)n1` [Example 173], the IC50 is at most 500 nM. In the case of `CS(=O)(=O)c1ccc(-c2cc(C(F)(F)F)cc(NCc3cccs3)n2)cc1` [Example 174], the IC50 was at most 500 nM. For `CS(=O)(=O)c1ccc(-c2cc(C(F)(F)F)cc(NCC3CCOCC3)n2)cc1` [Example 175], the IC50 is at most 500 nM.

Turning to `Cc1ccc(Nc2cc(C(F)(F)F)cc(-c3ccc(S(C)(=O)=O)cc3)n2)c(C)n1` [Example 178], the IC50 was at most 500 nM. As for `Cc1cccc(CNc2cc(C(F)(F)F)cc(-c3ccc(S(C)(=O)=O)cc3)n2)n1` [Example 180], the IC50 was at most 500 nM. The value for `Cc1ccc(Oc2cc(C(F)(F)F)cc(-c3ccc(S(C)(=O)=O)cc3)n2)c(C)n1` [Example 183] was at most 500 nM. On to `Cc1cccc(COc2cc(C(F)(F)F)cc(-c3ccc(S(C)(=O)=O)cc3)n2)n1` [Example 184], for which the IC50 was at most 500 nM. With `Cc1ncccc1COc1cc(C(F)(F)F)cc(-c2ccc(S(C)(=O)=O)cc2)n1` [Example 185], the IC50 is at most 500 nM. `Cc1ccc(COc2cc(C(F)(F)F)cc(-c3ccc(S(C)(=O)=O)cc3)n2)cn1` [Example 186]: the IC50 was at most 500 nM. With `Cc1nn(C)cc1CNc1cc(C(F)(F)F)cc(-c2ccc(S(C)(=O)=O)cc2)n1` [Example 187], the IC50 was at most 500 nM. Take `Cc1c(CNc2cc(C(F)(F)F)cc(-c3ccc(S(C)(=O)=O)cc3)n2)cnn1C` [Example 188]: the IC50 is at most 500 nM.

Consider `Cc1csc(CNc2cc(C(F)(F)F)cc(-c3ccc(S(C)(=O)=O)cc3)n2)n1` [Example 189], for which the IC50 was at most 500 nM. Take `CS(=O)(=O)c1ccc(-c2cc(C(F)(F)F)cc(Oc3cncc(Cl)c3)n2)cc1` [Example 190]: the IC50 was at most 500 nM.

On to `CS(=O)(=O)c1ccc(-c2cc(C(F)(F)F)cc(Nc3ccc(Cl)nn3)n2)cc1` [Example 191], for which the IC50 was at most 500 nM. The value for `Cc1ccc(CNc2nc(-c3ccc(S(C)(=O)=O)cc3)cc(C)c2C#N)cn1` [Example 192] was at most 500 nM; that for `CCN(Cc1ccccc1)c1cc(C(F)(F)F)cc(-c2ccc(S(C)(=O)=O)cc2)n1` [Example 193] was at most 500 nM. As to `CCOC(=O)c1c(CC)cc(-c2ccc(S(C)(=O)=O)cc2)nc1NCc1ccccc1` [Example 197], the IC50 was at most 500 nM. `CS(=O)(=O)c1ccc(-c2cc(C(F)(F)F)cc(OCc3ccc(Br)cn3)n2)cc1` [Example 200]: the IC50 is at most 500 nM. Regarding `CS(=O)(=O)c1ccc(-c2cc(C(F)(F)F)cc(OCc3ccncc3Br)n2)cc1` [Example 201], the IC50 is at most 500 nM.

Take `Cc1cc(NCc2conc2C)nc(-c2ccc(S(C)(=O)=O)cc2)c1` [Example 202]: the IC50 is at most 500 nM. The value for `CCc1cc(NCc2nccn2CC)nc(-c2ccc(S(C)(=O)=O)cc2)c1` [Example 204] was at most 500 nM. In the case of `Cc1cc(-c2ccc(S(C)(=O)=O)cc2)nc(N(C)Cc2nccn2C)c1C#N` [Example 205] it was at most 500 nM. For the molecule `CS(=O)(=O)c1ccc(-c2cc(C(F)(F)F)cc(N[C@H]3CC[C@@H](C)CC3)n2)cc1` [Example 206], the IC50 is at most 500 nM.

Take `CS(=O)(=O)c1ccc(-c2cc(C(F)(F)F)cc(N[C@H]3CC[C@H](C)CC3)n2)cc1` [Example 207]: the IC50 is at most 500 nM. As to `CS(=O)(=O)c1ccc(-c2cc(C(F)(F)F)cc(NCc3ccccn3)n2)cc1` [Example 208], the IC50 was at most 500 nM. Take `CS(=O)(=O)c1ccc(-c2cc(C(F)(F)F)cc(NC3CCCCCC3)n2)cc1` [Example 209]: the IC50 was at most 500 nM. For the molecule `Cc1cc(-c2ccc(S(C)(=O)=O)cc2)nc(NCc2ccccn2)c1C#N` [Example 210], the IC50 was at most 500 nM. For `CCC(CC)Nc1cc(C(F)(F)F)cc(-c2ccc(S(C)(=O)=O)cc2)n1` [Example 211], the IC50 is at most 500 nM. Consider `CS(=O)(=O)c1ccc(-c2cc(C(F)(F)F)cc(NC3CCC3)n2)cc1` [Example 212], for which the IC50 was at most 500 nM. Consider `Cc1noc(CNc2cc(C(F)(F)F)cc(-c3ccc(S(C)(=O)=O)cc3)n2)n1` [Example 213], for which the IC50 is at most 500 nM.

In the case of `Cc1nc(CNc2cc(C(F)(F)F)cc(-c3ccc(S(C)(=O)=O)cc3)n2)no1` [Example 214], the IC50 was at most 500 nM.

Take `CCc1cc(-c2ccc(S(C)(=O)=O)cc2)nc(OCc2ccccn2)c1C#N` [Example 217]: the IC50 was at most 500 nM. `Cc1cc(NCc2ccnn2C)nc(-c2ccc(S(C)(=O)=O)cc2)c1` [Example 218]: the IC50 was at most 500 nM. In the case of `CS(=O)(=O)c1ccc(-c2cc(C(F)(F)F)cc(NCC3CCCC3)n2)cc1` [Example 219, N-(cyclopentanemethyl)-4-(trifluoromethyl)-6-[4-(methylsulfonyl)phenyl]pyridine-2-amine] it was at most 500 nM; in that of `CCc1cc(-c2ccc(S(C)(=O)=O)cc2)nc(OCc2ccccn2)c1Cl` [Example 220], at most 500 nM. In the case of `CCO[C@H]1CC[C@H](Nc2cc(C(F)(F)F)cc(-c3ccc(S(C)(=O)=O)cc3)n2)CC1` [Example 221] it was at most 500 nM.

As to `CCc1cc(-c2ccc(S(C)(=O)=O)cc2)nc(NCc2ccccn2)c1C#N` [Example 222, 4-Ethyl-6-[4-(methylsulfonyl)phenyl]-2-[(2-pyridinylmethyl)amino]-3-pyridinecarbonitrile], the IC50 was at most 500 nM.

For the molecule `CCc1cc(-c2ccc(S(C)(=O)=O)cc2)nc(NCc2ccc(C)cn2)c1C#N` [Example 223], the IC50 was at most 500 nM. On to `CCc1cc(-c2ccc(S(C)(=O)=O)cc2)nc(NCc2ccc(C)nc2)c1C#N` [Example 224], for which the IC50 was at most 500 nM.
